# Measured values published in patent US20250034218A1, “ANTIMICROBIAL PEPTIDES” (BiomEdit, LLC, priority 2021, published 2025).
# Ends that are not written are not given here.
# Columns and labels:
# E. coli DH5alpha [1] = assay type: cell-based, Escherichia coli; details: peptide treated with trypsin at 37° C. before MIC assay
# Protocol: CAP18 peptide variants single mutants were evaluated for resistance to trypsin. Peptides were subjected to trypsin protease treatment and then assessed for bacterial cell killing (against E. coli) in a MIC assay.
# (§1) CAP18 variants were synthesized from GenScript, Inc, and solubilized in sterile purified water to a final concentration of 4 mg/ml. E. coli DH5alpha was grown overnight in 10 ml LB broth. Ten microliters of each CAP18 variant was treated with 2 μl (or 2 μl of the 10-fold diluted trypsin) of trypsin (0.25%, Sigma Aldrich) and incubated at 37° C. for 2 or 5 minutes in a PCR machine. The samples were then incubated at 98° C. for 5 minutes to inactivate trypsin. An MIC assay was set up using trypsin-treated CAP18 variants in a 96-well plate. Briefly, the peptides were serially diluted 2-fold in LB broth to achieve a final volume of 50 μl in each well and 50 μl of the E. coli DH5alpha culture adjusted to a concentration of 2×10^6 cells/ml was added into each well. Appropriate controls (media only control, no CAP18 control) were included on the same plate. The plates were incubated at 37° C. for 24-48 hours and MIC for each variant was recorded. The experiment was repeated 3 times.
# M. haemolytica = assay type: cell-based, Mannheimia haemolytica; details: plate assay, FIG. 2B
# Protocol: (§2) CAP18 peptide (wild type peptide also herein designated as AMP01) has application and utility for multiple indications in livestock, poultry & aqua species. […] Cap18 peptide is active against viruses of significance for the animal industry, such as PRRSV (PRRS, swine) (FIG. 2C). […] FIG. 3 depicts activity of CAP18 peptide (AMP01) against Giardia.
# (§3) Antimicrobial effect of CAP18 against BRD pathogens M. haemolytica and P. multocida was evaluated.
# [2] = system: Methanobacterium bryantii; experiment: In-vitro screening, growth of rumen methanogen; assay type: cell-based; details: FIGS. 10A and 10B; BES as positive control
# Source text: BES, a known methanogen inhibitor shown in FIG. 10C, was used as a positive control.
# Eimeria = experiment: Inhibition of Eimeria parasites; assay type: cell-based; details: Eimeria (Coccidiosis, poultry)
# Protocol: The effect of Cap 18 peptides and any variants thereof is tested on Eimeria. An exemplary study is provided with results depicted in FIG. 4. Three independent experiments were conducted with CAP18 peptides—designated Cap18a, Cap18b and Cap18c. The CAP18 peptides were compared with monensin as a positive control. Three independent experiments with monensin (designated Mona, Monb and Monc).
# P. mutlocida = assay type: cell-based, Pasteurella multocida
# Protocol: as §2, §3
# [3] = system: porcine reproductive and respiratory syndrome virus (PRRSV); experiment: Inhibition of PRRS virus infection; assay type: cell-based; details: 1:2 and 1:4 diluted
# Protocol: Antibacterial peptide CAP18 was evaluated for activity inhibiting virus, particularly its antiviral effect on porcine reproductive and respiratory syndrome virus (PRRSV). Results are provided in Figure S. AMP01 polypeptide was evaluated at 1:2 and 1:4 diluted and shown to be effective.
# Y. ruckeri = details: injection before exposure to Y. ruckeri; compared to non-treated fish; cited from earlier work
# Giardia = Giardia plate assay, % of control (Table 3); assay type: cell-based; details: plate G7
# Source text: Data comparing AMP01 (wild type CAP 18 peptide (SEQ ID NO: 1) with various other agents is tabulated in Table 3. NTZ corresponds to nitazoxanide. ALB corresponds to albendazole.
# E. coli DH5alpha [4] = assay type: cell-based, Escherichia coli; details: peptide treated with proteinase K at 37° C. before MIC assay
# Protocol: CAP18 peptide variants single mutants were evaluated for resistance to proteinase K. Peptides were subjected to proteinase K treatment and then assessed for bacterial cell killing (against E. coli) in a MIC assay.
# as §1, with “μl” for “μl (or 2 μl”, “proteinase K (Qjagen, >600 mAU/ml)” for “the 10-fold diluted trypsin) of trypsin (0.25%, Sigma Aldrich)”, “proteinase K.” for “trypsin.”, “proteinase K-treated” for “trypsin-treated”
# [5] = 90° C. for 30 minutes; cited from earlier work
# Giardia trophozoites = experiment: Giardia trophozoite test tube assay, light microscopy; assay type: cell-based; details: AMP01 100 μM, FOR 5 μM
# Protocol: Test tube with a confluent layer of trophozoites is treated with AMP01 (100 μM). Light microscopy, counting of detached dead or alive (i.e. motile) trophozoites is then conducted. Formononetin (5 μM; FOR) is used for comparison as a positive control.
# The changes in morphology were still visible one day after the treatment and are depicted in FIG. 3 (photographs all taken at 100×). After 1 d, the trophozoites in the control tube (FIG. 3A) were fully alive (and overgrowing), as expected. […] The different sizes of the trophozoites can be noted by comparing the white circles. Similar effects were observed using cytotoxic anti-variant surface protein antibodies (Hemphil et al. 1996).
# E. coli DH5 alpha = assay type: cell-based, Escherichia coli
# Protocol: A MIC assay was set up using heat treated CAP18 variants in a 96-well plate. […] Appropriate controls (media only control, no CAP18 control) were included on the same plate. The plates were incubated at 37° C. for 24-48 hours and MIC for each variant was recorded. The experiment was repeated 3 times.
sequence,measurement,setting,value
GLRKRLRKFRNKIKEKLKKIGQKIQGLLPKLAPRTDY [AMP01],"Resistance to trypsin (MIC, ug/ml)",E. coli DH5alpha [1],25 µg/mL
same,MIC,M. haemolytica,4 to 8 µg/mL
same,growth of rumen methanogen,[2],inhibits the growth
same,inhibiting activity of parasites,Eimeria,effective in inhibiting activity
same,MIC,P. mutlocida,4 to 8 µg/mL
same,antiviral effect on PRRSV,[3],effective
same,mortality,Y. ruckeri,lower mortality
same,% of control MV,Giardia; Conc 10 (uM or %),141.1%
same,% of control MV,Giardia; Conc 100 (uM or %),1.0%
same,"Resistance to proteinase K (MIC, ug/ml)",E. coli DH5alpha [4],>400 µg/mL
same,antimicrobial activity after heat treatment,[5],retain full antimicrobial activity
same,detachment of trophozoites,Giardia trophozoites; after 1 h,nearly complete detachment
same,morphology and motility of detached trophozoites,Giardia trophozoites; after 1 h,"crumbled, shrunken and immotile"
same,state of trophozoites,Giardia trophozoites; after 1 d,"dead, shrunken and started to disintegrate"
same,"Thermotolerance at 90 for 5 minutes (MIC, ug/ml)",E. coli DH5 alpha,200 µg/mL
